From EP0364941A1, “Branched-chain alkyl esters of 2-(4-(2-piperidino ethoxy)benzoyl)benzoic acid, processes for their preparation and their use as spasmolytic agents” (HOECHST AKTIENGESELLSCHAFT, priority 1988, dated 1990)
Read-outs that look alike come from different tables or passages of the source.

System: small intestine
Experiment: Motility of the small intestine in the conscious dog
Format: in vivo
Details: for Area under the contraction curve, Postdrug 10 min: 10 min postdrug; for Area under the contraction curve, Postdrug 10 min / Area under the contraction curve, Postdrug 20 min / Area under the contraction curve, Postdrug 30 min / Area under the contraction curve, Postdrug 40 min / Area under the contraction curve, Postdrug 50 min / Area under the contraction curve, Postdrug 60 min / Area under the contraction curve, Predrug -20 - 0: phase I and II; for Area under the contraction curve, Postdrug 20 min: 20 min postdrug; for Area under the contraction curve, Postdrug 30 min: 30 min postdrug; for Area under the contraction curve, Postdrug 40 min: 40 min postdrug; for Area under the contraction curve, Postdrug 50 min: 50 min postdrug; for Area under the contraction curve, Postdrug 60 min: 60 min postdrug; for Inhibition Maximal / Inhibition Mean / ED50: phase I+II activity; for Area under the contraction curve, Predrug -20 - 0: predrug baseline -20 - 0 min; for Duration of action: when postdrug values reached 90 % or more of predrug values; for ED50: Canis lupus familiaris, iv
From the text: Male dogs (THG Tierhandelsgesellschaft Rodenbach, Hoe:BEAK (Beagle)) weighing 15 - 20 kg were used in all experiments. At least 4 weeks prior to the experiment the dogs had been equipped with miniaturized strain gage force transducers (T1-T3) (2x4 mm), sutured onto the gut at the locations mentioned below. The cables of the transducers were embedded into a cannula which carried the plug for external electric connection. This stainless steel cannula was implanted into the abdominal wall, close below the costal arch. Each transducer was connected to a measuring bridge. The signals were on line stored using a HP 9835 A computer, allowing later analysis of the data. • T1 : Proximal jejunum • T2 : Distal jejunum • T3 : Ileum
18 hours prior to the experiment food was withdrawn from the animals, water ad libidum. All experiments started between 08:00 and 09:00 am.
The following motility parameters were determined: The integral under the […] at 10 min intervals (mNx10min) as an index of phase I + II activity. The duration of drug action (min.) The duration of the interdigestive migrating complex (IMC) (min) as a measure of phase III activity.
Test Compound II was given at doses of 0.2 and 0.5 mg/kg i.v. or 5 mg/kg i.g., dissolved in saline, in a volume of 1 ml/kg (i.v.) or 2 ml/kg (i.g.), n = 3 - 6. Control n = 26.
Buscopan was given at doses of 0.3 and 1 mg/kg i.v., dissolved in saline, in a volume of 1 ml/kg, n = 4 - 6. Pitofenone was given at doses of 1 mg/kg i.v., dissolved in saline, in a volume of 1 ml/kg, n = 8.
ID₅₀-values were determined graphically.

CC(C)OC(=O)c1ccccc1C(=O)c1ccc(OCCN2CCCCC2)cc1.Cl [Test Compound II, Isopropyl-2-[4-(2-piperidino-ethoxy)-benzoyl]-benzoate hydrochloride]
Area under the contraction curve, Postdrug 10 min (0.2 mg/kg i.v.): 1.54 mN x 10 min | Area under the contraction curve, Postdrug 20 min (0.2 mg/kg i.v.): 1.42 mN x 10 min | Area under the contraction curve, Postdrug 30 min (0.2 mg/kg i.v.): 1.88 mN x 10 min | Area under the contraction curve, Postdrug 40 min (0.2 mg/kg i.v.): 1.77 mN x 10 min | Area under the contraction curve, Postdrug 50 min (0.2 mg/kg i.v.): 1.78 mN x 10 min | Area under the contraction curve, Postdrug 60 min (0.2 mg/kg i.v.): 2.19 mN x 10 min | Inhibition Maximal (0.2 mg/kg i.v.): 34% | Inhibition Mean (0.2 mg/kg i.v.): 22 ± 4% | Area under the contraction curve, Predrug -20 - 0 (0.2 mg/kg i.v.): 2.15 mN x 10 min | Duration of action (0.2 mg/kg i.v.): 50 min | duration of inhibitory effect (0.5 mg/kg i.v., conscious dog): approximately one | Area under the contraction curve, Postdrug 10 min (0.5 mg/kg i.v.): 0.54 mN x 10 min | Area under the contraction curve, Postdrug 20 min (0.5 mg/kg i.v.): 0.50 mN x 10 min | Area under the contraction curve, Postdrug 30 min (0.5 mg/kg i.v.): 0.99 mN x 10 min | Area under the contraction curve, Postdrug 40 min (0.5 mg/kg i.v.): 1.17 mN x 10 min | Area under the contraction curve, Postdrug 50 min (0.5 mg/kg i.v.): 1.61 mN x 10 min | Area under the contraction curve, Postdrug 60 min (0.5 mg/kg i.v.): 2.46 mN x 10 min | Inhibition Maximal (0.5 mg/kg i.v.): 81% | Inhibition Mean (0.5 mg/kg i.v.): 54 ± 11% | Area under the contraction curve, Predrug -20 - 0 (0.5 mg/kg i.v.): 2.62 mN x 10 min | Duration of action (0.5 mg/kg i.v.): 60 min | Duration of cycles (5 mg/kg intragastrical, Phase III activity): 298 ± 18 min | inhibition of phase III activity (5 mg/kg intragastrically, conscious dog): pronounced inhibition | ED50 (conscious dog, read-out: intravenous IC₅₀-values determined from maximal inhibition): 0.22 mg/kg | ED50 (determined graphically, read-out: ID₅₀): 0.26 mg/kg
